Drawing on ChEMBL document CHEMBL2401637, “The identification of novel p38α isoform selective kinase inhibitors having an unprecedented p38α binding mode” (Bioorg Med Chem Lett, 2013), this text covers solubility for three molecules.

Where only a bound is given, the exact number is not on record here.

This series is described as follows: Aqueous solubility of the compound at pH 6.5. The series is classed as physicochemical.
A word on the solubility: it is how much of the substance goes into solution per volume. Consider `Cc1ccc(C(=O)NC2CC2)cc1NC(=O)c1ccc(-c2ccc(Cl)cc2)s1`, for which the solubility is < 1 µg/mL.

Consider `Cc1ccc(C(=O)NC2CC2)cc1NC(=O)c1ccc(-c2cccc(Cl)c2)s1`, for which the solubility is < 1 µg/mL.

Consider `Cc1ccc(C(=O)NC2CC2)cc1NC(=O)c1ccc(-c2ccccc2Cl)s1`, for which the solubility was < 1 µg/mL.
